Data taken from the supplement of paper PMC11451515.

Experiments:
Settings in all cases: 48 h
SEM cells [1] = assay: cell viability relative to DMSO control; higher = less cytotoxic
Outline: (§1)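 Before seeding, each leukemia line was adapted for at least four passages in each medium. NOMO1 or SEM cells (500 cells/well) and P12-Ichikawa cells (1000 cells/well) went into 1536-well plates at 5 μl, then received library compounds in DMSO by pin dosing across 11 threefold concentrations, 47 μM to 0.79 nM. Readout was CellTiter-Glo One luminescence after 48 h at 37°C, and viability is given as a per-plate percentage of DMSO wells, with cell-free wells as background.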

NOMO1 [2] = assay: AUC of viability dose-response curve (% viability x log10 dose units); higher = less sensitive
Outline: (§2)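 Leukemia cells adapted to each medium were seeded at 500 or 1000 cells/well in 1536-well plates and dosed with library compounds in DMSO at 11 threefold doses from 47 μM to 0.79 nM for 48 h at 37°C. CellTiter-Glo One luminescence was normalised per plate to DMSO and cell-free wells, then fitted with a four-parameter log-logistic model over log10 doses. Area under the curve was taken from this fit by the trapezoidal rule, with curves above full viability scaled and curves failing quality control removed.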

P12-Ichikawa [3] = assay: as above
Outline: as §2

SEM cells [4] = assay: as above
Outline: as §2

NOMO1 [5] = assay: cell viability relative to DMSO control; higher = less cytotoxic
Outline: as §1

P12-Ichikawa [6] = assay: as above
Outline: as §1

Cn1ccc2cc3c(cc21)CCN3C(=O)Nc1cccnc1
SEM cells [1], HPLM + 10% dialyzed FBS
Settings | cell viability [%]
0.000781 µM | 100
0.00234 µM | 113
0.00702 µM | 132
0.0211 µM | 116
0.0632 µM | 123
0.19 µM | 158
0.569 µM | 140
1.71 µM | 127
5.12 µM | 125
15.4 µM | 137
46.1 µM | 59.8

AUC of viability dose-response curve
Settings | NOMO1 [2] | P12-Ichikawa [3] | SEM cells [4]
HPLM + 10% dialyzed FBS | 460 | 464 | 464
RPMI 5 mM glucose + 10% FBS | 451 | 462 | 461
RPMI 5 mM glucose + 10% dialyzed FBS | 466 | 463 | 461

O=C(Nc1cccc(Br)c1)c1cccc([S+](=O)([O-])N2CCCCCC2)c1
AUC of viability dose-response curve
Settings | NOMO1 [2] | P12-Ichikawa [3] | SEM cells [4]
HPLM + 10% dialyzed FBS | 462 | 450 | 447
RPMI 5 mM glucose + 10% FBS | 460 | 457 | 436
RPMI 5 mM glucose + 10% dialyzed FBS | 470 | 464 | 441

NCCc1c[nH]cn1
AUC of viability dose-response curve
Settings | NOMO1 [2] | P12-Ichikawa [3] | SEM cells [4]
HPLM + 10% dialyzed FBS | 466 | 456 | 473
RPMI 5 mM glucose + 10% FBS | 460 | 449 | 437
RPMI 5 mM glucose + 10% dialyzed FBS | 444 | 461 | 432

FC(F)(F)c1ccc(CNc2ccc(Cc3c[nH]c4ncc(Cl)cc34)cn2)cn1
AUC of viability dose-response curve
Settings | HPLM + 10% dialyzed FBS | RPMI 5 mM glucose + 10% FBS | RPMI 5 mM glucose + 10% dialyzed FBS
P12-Ichikawa [3] | 268 | 367 | 370
SEM cells [4] | 317 | 245 | 314

OCCN1C[C@H](O)[C@@H](O)[C@H](O)[C@H]1CO
SEM cells [1], HPLM + 10% dialyzed FBS
Settings | cell viability [%]
0.000781 µM | 93.6
0.00234 µM | 116
0.00702 µM | 129
0.0211 µM | 118
0.0632 µM | 86.6
0.19 µM | 114
0.569 µM | 138
1.71 µM | 125
5.12 µM | 134
15.4 µM | 136
46.1 µM | 123

AUC of viability dose-response curve
Settings | NOMO1 [2] | P12-Ichikawa [3] | SEM cells [4]
HPLM + 10% dialyzed FBS | 296 | 365 | 432
RPMI 5 mM glucose + 10% FBS | 266 | 371 | 417
RPMI 5 mM glucose + 10% dialyzed FBS | 296 | 377 | 384

C[C@H](Cc1ccc(O)c(O)c1)[C@@H](C)Cc1ccc(O)c(O)c1
cell viability [%]
Settings | NOMO1 [5] | P12-Ichikawa [6] | SEM cells [1]
HPLM + 10% dialyzed FBS, 0.000781 µM | 130 | 115 | 123
HPLM + 10% dialyzed FBS, 0.00234 µM | 119 | 114 | 121
HPLM + 10% dialyzed FBS, 0.00702 µM | 118 | 120 | 113
HPLM + 10% dialyzed FBS, 0.0211 µM | 117 | 122 | 116
HPLM + 10% dialyzed FBS, 0.0632 µM | 126 | 118 | 130
HPLM + 10% dialyzed FBS, 0.19 µM | 133 | 116 | 116
HPLM + 10% dialyzed FBS, 0.569 µM | 134 | 117 | 29
HPLM + 10% dialyzed FBS, 1.71 µM | 132 | 116 | 118
HPLM + 10% dialyzed FBS, 5.12 µM | 42 | 114 | 122
HPLM + 10% dialyzed FBS, 15.4 µM | 99.6 | 87.5 | 105
HPLM + 10% dialyzed FBS, 46.1 µM | 18.4 | 18.1 | 28.8
RPMI 5 mM glucose + 10% FBS, 0.000781 µM | 141 | 125 | 117
RPMI 5 mM glucose + 10% FBS, 0.00234 µM | 114 | 130 | 110
RPMI 5 mM glucose + 10% FBS, 0.00702 µM | 112 | 123 | 105
RPMI 5 mM glucose + 10% FBS, 0.0211 µM | 122 | 128 | 104
RPMI 5 mM glucose + 10% FBS, 0.0632 µM | 117 | 130 | 117
RPMI 5 mM glucose + 10% FBS, 0.19 µM | 109 | 126 | 103
RPMI 5 mM glucose + 10% FBS, 0.569 µM | 119 | 118 | 37.3
RPMI 5 mM glucose + 10% FBS, 1.71 µM | 114 | 125 | 118
RPMI 5 mM glucose + 10% FBS, 5.12 µM | 111 | 115 | 128
RPMI 5 mM glucose + 10% FBS, 15.4 µM | 104 | 75.9 | 101
RPMI 5 mM glucose + 10% FBS, 46.1 µM | 57.5 | 16.3 | 6.24
RPMI 5 mM glucose + 10% dialyzed FBS, 0.000781 µM | 119 | 124 | 144
RPMI 5 mM glucose + 10% dialyzed FBS, 0.00234 µM | 121 | 121 | 113
RPMI 5 mM glucose + 10% dialyzed FBS, 0.00702 µM | 124 | 119 | 119
RPMI 5 mM glucose + 10% dialyzed FBS, 0.0211 µM | 107 | 118 | 128
RPMI 5 mM glucose + 10% dialyzed FBS, 0.0632 µM | 104 | 124 | 131
RPMI 5 mM glucose + 10% dialyzed FBS, 0.19 µM | 114 | 120 | 116
RPMI 5 mM glucose + 10% dialyzed FBS, 0.569 µM | 113 | 109 | 36.6
RPMI 5 mM glucose + 10% dialyzed FBS, 1.71 µM | 111 | 114 | 109
RPMI 5 mM glucose + 10% dialyzed FBS, 5.12 µM | 57 | 115 | 112
RPMI 5 mM glucose + 10% dialyzed FBS, 15.4 µM | 94.1 | 70.9 | 109
RPMI 5 mM glucose + 10% dialyzed FBS, 46.1 µM | 27.9 | 20.6 | 7.68

AUC of viability dose-response curve
Settings | HPLM + 10% dialyzed FBS | RPMI 5 mM glucose + 10% FBS | RPMI 5 mM glucose + 10% dialyzed FBS
P12-Ichikawa [3] | 443 | 432 | 436
SEM cells [4] | 394 | 453 | 453

Clc1ccc2ncc(-c3cccc(NC4CNC4)n3)n2c1
cell viability [%], SEM cells [1]
Settings | HPLM + 10% dialyzed FBS | RPMI 5 mM glucose + 10% FBS
0.000781 µM | 120 | 119
0.00234 µM | 121 | 122
0.00702 µM | 125 | 131
0.0211 µM | 125 | 121
0.0632 µM | 136 | 147
0.19 µM | 122 | 141
0.569 µM | 115 | 119
1.71 µM | 113 | 115
5.12 µM | 77.5 | 105
15.4 µM | 67.1 | 76.9
46.1 µM | 45.8 | 47.6

AUC of viability dose-response curve
Settings | NOMO1 [2] | P12-Ichikawa [3] | SEM cells [4]
HPLM + 10% dialyzed FBS | 433 | 441 | 412
RPMI 5 mM glucose + 10% FBS | 455 | 439 | 427
RPMI 5 mM glucose + 10% dialyzed FBS | 443 | 443 | 411

CN1C2CCC1CC(OC(=O)C(CO)c1ccccc1)C2 (centres undefined)
AUC of viability dose-response curve
Settings | NOMO1 [2] | P12-Ichikawa [3] | SEM cells [4]
HPLM + 10% dialyzed FBS | 467 | 454 | 464
RPMI 5 mM glucose + 10% FBS | 463 | 465 | 439
RPMI 5 mM glucose + 10% dialyzed FBS | 472 | 469 | 474
